These results are taken from PubChem BioAssay (NCI).

SMILES strings stand for the structures.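 Tested at 5 concentrations; 48 h exposure; 96-well plates; endpoints linearly interpolated, else capped at highest concentration. The concentration for 50% growth inhibition is given as GI50. TGI marks complete inhibition of growth.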

Test systems include ACHN renal; HCT-15 colon; HL-60(TB) leukemia; K-562 leukemia; M14 melanoma; NCI-H226 lung; OVCAR-4 ovarian; SF-295 CNS; SK-OV-3 ovarian.
Assay in all cases: DTP human tumour cell line panel, 48 h

For `COc1cc(/C=C/c2ccc(Br)cc2)cc(OC)c1OC`, the TGI – broadly, the concentration at which net growth stops – was above 100 µM in the assay with ACHN renal; 61.1 µM with HCT-15 colon; 19 µM in the assay with HL-60(TB) leukemia; above 37.8 µM in the assay on K-562 leukemia; 87.6 µM with M14 melanoma; 56.6 µM in the assay on NCI-H226 lung. Besides, the TGI with OVCAR-4 ovarian was 87.1 µM; with SF-295 CNS it was 40.2 µM; with SK-OV-3 ovarian it was above 89.9 µM.
`COc1ccc(S(=O)(=O)N[C@H](C(=O)O)c2ccccc2)cc1`: the TGI in the assay with ACHN renal, in the assay on HCT-15 colon, in the assay with K-562 leukemia, with M14 melanoma, in the assay on NCI-H226 lung and in the assay on OVCAR-4 ovarian was above 100 µM each time. Besides, the TGI in the assay on SF-295 CNS and in the assay with SK-OV-3 ovarian was above 100 µM in each case.
With `CCOC(=O)C(NO)C(Sc1ccccc1)c1ccc(OC)cc1` (configuration not stated), the TGI with ACHN renal, with HCT-15 colon, in the assay with M14 melanoma, in the assay on NCI-H226 lung, in the assay with SF-295 CNS and with SK-OV-3 ovarian was above 100 µM each time.
Regarding `CCN(CC)CC(=O)NC1c2ccccc2Oc2c(C)cccc21` (configuration not stated), the TGI with ACHN renal, with HCT-15 colon, in the assay with HL-60(TB) leukemia, in the assay on K-562 leukemia, in the assay with M14 melanoma and in the assay with NCI-H226 lung was above 100 µM throughout. Besides, the TGI with OVCAR-4 ovarian and in the assay on SK-OV-3 ovarian was above 100 µM in each case.
As to `COc1ccc2c(c1)[n+](=O)c(C(=O)C/C(=N/NC(=O)C[N+](C)(C)C)C(=O)Nc1cccc(C)c1C)c(C)n2O`, the TGI with ACHN renal, with HCT-15 colon, with K-562 leukemia, in the assay on M14 melanoma, in the assay on NCI-H226 lung and in the assay with OVCAR-4 ovarian was above 100 µM in each case. The TGI in the assay with SF-295 CNS and with SK-OV-3 ovarian was above 100 µM throughout.
For the compound `COc1cc(-c2ccc(NC(=O)SCCC(=O)O)cc2OC)ccc1NC(=O)SCCC(=O)O`, the TGI in the assay with ACHN renal, with HCT-15 colon, in the assay with HL-60(TB) leukemia, with K-562 leukemia, with M14 melanoma and with NCI-H226 lung was above 100 µM each time. The TGI in the assay with OVCAR-4 ovarian and in the assay on SF-295 CNS was above 100 µM in each case.
In the case of `COC1OC(CBr)C(OC(=O)c2ccccc2)C(OS(=O)(=O)c2ccc(C)cc2)C1Br` (configuration not stated), the TGI in the assay on ACHN renal, in the assay with HCT-15 colon, with HL-60(TB) leukemia, in the assay on K-562 leukemia, in the assay on M14 melanoma and with OVCAR-4 ovarian was above 100 µM in each case. Also, the TGI in the assay with SF-295 CNS was above 100 µM.
`CC1CCC(=O)C(C(O)CC2CC(=O)N(c3ccccc3)C(=O)C2)C1` (configuration not stated): the TGI in the assay on ACHN renal, in the assay with HL-60(TB) leukemia, in the assay on K-562 leukemia, in the assay with M14 melanoma, with NCI-H226 lung and in the assay on OVCAR-4 ovarian was above 100 µM throughout. The TGI in the assay with SF-295 CNS and in the assay with SK-OV-3 ovarian was above 100 µM throughout.
Turning to `COc1ccc(-c2ccccc2)c2[nH]c3c(c12)CCNC3=O`, the TGI in the assay on HCT-15 colon, with HL-60(TB) leukemia, with K-562 leukemia, with M14 melanoma, in the assay on NCI-H226 lung and in the assay with OVCAR-4 ovarian was above 100 µM throughout. The compound further came in with a TGI with SF-295 CNS above 100 µM.
With `CN(NC1OC(CO)C(O)C(O)C1O)c1ccccc1` (configuration not stated), the TGI with ACHN renal, in the assay on HCT-15 colon, in the assay on HL-60(TB) leukemia, in the assay with K-562 leukemia, with M14 melanoma and with NCI-H226 lung was above 100 µM each time. Besides, the TGI in the assay with OVCAR-4 ovarian and in the assay with SF-295 CNS was above 100 µM each time.
For the compound `CN(C)CCn1cnc2ncccc2c1=O`, the TGI in the assay on ACHN renal, with K-562 leukemia, in the assay on M14 melanoma, with NCI-H226 lung, in the assay on OVCAR-4 ovarian and in the assay on SF-295 CNS was above 100 µM each time. The compound further had a TGI with SK-OV-3 ovarian above 100 µM.
On to `c1ccc(-c2n(Cc3ccc4ccccc4c3)cc[n+]2Cc2ccc3ccccc3c2)cc1`, for which the GI50 (usually the concentration that inhibits growth by half) in the assay with ACHN renal was 1.77 µM; in the assay with HCT-15 colon, 1.79 µM; in the assay on SF-295 CNS it was 1.26 µM; in the assay on SK-OV-3 ovarian, 1.49 µM. Further, the TGI with ACHN renal is 3.43 µM; in the assay on HCT-15 colon, 3.46 µM; in the assay with SF-295 CNS, 2.55 µM; with SK-OV-3 ovarian, 2.89 µM.
As to `Clc1ccc(OCc2nnc3n2N=C(c2ccc(Br)cc2)CS3)cc1`, the TGI was above 100 µM in the assay with ACHN renal; above 100 µM in the assay with HCT-15 colon; above 100 µM with HL-60(TB) leukemia; above 100 µM with K-562 leukemia; above 100 µM in the assay with NCI-H226 lung; 37.7 µM in the assay with SF-295 CNS. This compound also registered a TGI in the assay on SK-OV-3 ovarian of 34.6 µM.
With `CC(=O)OCC1OC(OCc2ccccc2)C(Br)C(OC(C)=O)C1OC(C)=O` (configuration not stated), the TGI in the assay with ACHN renal, with HCT-15 colon, in the assay on HL-60(TB) leukemia, in the assay with K-562 leukemia, in the assay on M14 melanoma and with NCI-H226 lung was above 100 µM in each case. The TGI in the assay on OVCAR-4 ovarian and with SF-295 CNS was above 100 µM in each case.
